According to US20210145772A1, “CAP[…] USE IN TREATING ACRAL LICK GRANULOMA” (Centrexion Therapeutics Corporation, priority 2014, published 2021):
Values joined by “and” are separate entries in the source; they are usually repeats but may differ in a detail not shown here. Identical values can stand only once.

Legend:
Format in all cases: in vivo, dog (canine)
acral lick granuloma [1] = assay: Client Specific Outcome Measure (CSOM), owner-scored, in dogs with acral lick granuloma after subcutaneous injection
Protocol: A clinical study was performed to evaluate the effect of injectable capsaicin in treating acral lick granuloma in canines. A total of six dogs suffering from acral lick granuloma were treated using injectable capsaicin and evaluated. Experimental procedures are described in Part I below.
(§1) Six dogs suffering from acral lick granuloma were treated using injectable capsaicin and evaluated.
At a Screening visit, the index lesion was examined. The diagnosis of the index granuloma was made based on characteristics of the lesion and history of licking. Veterinary personnel reviewed with each dog owner the concept and implementation of an Owner-derived efficacy assessment, the Client Specific Outcome Measure (CSOM, based loosely on the CSOM developed for use with osteoarthritis (Gingerich D, and Strobel J. in “Use of client-specific outcome measures to assess treatment effects in geriatric, arthritic dogs: Controlled clinical evaluation of a nutraceutical,” Vet. Ther. (2003) vol. 4, pages 56-66)), to assess the severity and progression of licking behavior associated with the acral lick granuloma. Up to three activities were identified and scored relative to their state prior to the acral lick granuloma (1-no problem, 2-mildly problematic, 3-moderately problematic, 4-severely problematic, 5-impossible). The CSOM assessment was completed at Screening Day (i.e., seven days before administration of capsaicin, also referred to as Day −7), Day 0, Day 14 (±2), and Day 28 (±3) until study termination.
(§2) After the screening visit, the dog returned to the site on Day 0 for injection with Study Drug. As a general procedure, dogs were anesthetized using a short-acting anesthetic protocol before injection of the Study Drug. If propofol was used, it was used for induction prior to gas anesthesia but not as a drip to maintain anesthesia. The area to be injected with Study Drug was prepared using site disinfection procedures that are routinely used at veterinary hospital.
(§3) The Study Drug was trans-capsaicin in a solution of polyethylene glycol 300 (PEG 300) and water for injection. The Study Drug was prepared by diluting (i) a solution of PEG 300 containing trans-capsaicin at a concentration of 2 mg/mL (hereinafter “Solution A”) with (ii) sterile water for injection. Solution A was diluted with a volume of sterile water for injection (WFI) in an amount equal to 4 to 5-fold to produce the Study Drug.
(§4) Study Drug was administered to the dog by subcutaneous injection at several locations under the index acral lick granuloma. The goal of the injection was to infiltrate the Study Drug at the junction between the granuloma and healthy tissue throughout the area of the lesion. The dose of trans-capsaicin per lesion to be administered was approximately 1.5 μg of trans-capsaicin per mm^2 of lesion. Each lesion to be injected was measured (mm) for long axis (length) and short axis (width). The approximate surface area was calculated based on an elliptical shape. Based on the calculated lesion areas, the calculated dose of trans-capsaicin per lesion ranged from <0.10 mg to 2.65 mg of trans-capsaicin. Dog reactions during and immediately after the injection procedure were recorded in the study records. Injections of Study Drug were performed using a 22 gauge needle.
As noted above, the severity of licking behavior caused by the acral lick granuloma was measured by the owner using a modification of a previously published system (Gingerich and Strobel 2003 noted above). During Screening, dog owners were interviewed by veterinary personnel trained in CSOM assessments (e.g., Study Coordinator) to identify one to three activities that have changed as a result of the acral lick granuloma. Activities focused on the use of the limb(s) with the index lesion and on behavioral responses. For example, excessive licking of the granuloma would be a behavioral response. […]

acral lick granuloma [2] = assay: Lesion surface area from traced lesion photographs (Adobe Acrobat measurement tool)
Source text: FIG. 2 provides illustrations of the lesion(s) from each dog prior to injection of Study Drug, at Day 14, and at Day 28 of the study, where the lesion is traced for Adobe Acrobat IX determination of lesion area, as further described in Example 1 herein.
as §2, §3, §4
(§5) Physical examinations of the dog including the injection site observation were conducted. General and dermatologic exams, including a description, measurements (dimensions), and digital photograph of the index lesion were collected.
(§6) An illustration of the lesion(s) from each dog prior to injection with Study Drug are provided in FIG. 1, along with illustrations of the lesions from each dog at Day 14 and separately at Day 28 of the study. FIG. 2 provides illustrations of the lesions from each dog prior to injection of Study Drug, at Day 14 of the study, and at Day 28 of the study, where the lesion is traced for Adobe Acrobat IX determination of lesion area.

acral lick granuloma [3] = assay: Lesion size: measured long and short axis, surface area approximated as an ellipse
Protocol: as §1, §2, §3, §4, §5, §6

[4] = individual lesion of individual dog

COc1cc(CNC(=O)CCCC/C=C/C(C)C)ccc1O [Study Drug, trans-capsaicin]
CSOM Day 14 (sum of identified activities) (acral lick granuloma [1]; average of six dogs): 4.8 | CSOM Day 28 (sum of identified activities) (acral lick granuloma [1]; average of six dogs): 6.3 | CSOM Delta Day 14-baseline (acral lick granuloma [1]; average of six dogs): −3.0 | CSOM Delta Day 28-baseline (acral lick granuloma [1]; average of six dogs): −1.5 | CSOM Percent Change to Day 14 (acral lick granuloma [1]; average of six dogs): −41% | CSOM Percent Change to Day 28 (acral lick granuloma [1]; average of six dogs): −26% | benefit to dogs suffering from acral lick granuloma as indicated by CSOM results (acral lick granuloma [1]; conclusion in words): provided a benefit | CSOM Delta Day 14-baseline (acral lick granuloma [1]; individual dog): −1 (2×) and −2 and −6 and −4 (2×) | CSOM Delta Day 28-baseline (acral lick granuloma [1]; individual dog): −1 and 2 (2×) and −4 (3×) | CSOM Day 14 (sum of identified activities) (acral lick granuloma [1]; individual dog, Day 14 after s.c. injection, approx. 1.5 μg trans-capsaicin per mm^2 of lesion): 1 and 7 and 9 and 6 and 2 and 4 | CSOM Day 28 (sum of identified activities) (acral lick granuloma [1]; individual dog, Day 28 after s.c. injection): 1 and 11 and 12 and 8 and 2 and 4 | CSOM Percent Change to Day 14 (acral lick granuloma [1]; individual dog, vs baseline): −50% (3×) and −22% and −10% and −67% | CSOM Percent Change to Day 28 (acral lick granuloma [1]; individual dog, vs baseline): −50% (2×) and 22% and 20% and −33% and −67% | average reduction in CSOM at Day 14 compared with baseline (acral lick granuloma [1]; six dogs): 41% | average reduction in CSOM at Day 28 compared with baseline (acral lick granuloma [1]; six dogs): 26% | Lesion surface area (Adobe Acrobat) Delta Day 14-baseline (acral lick granuloma [2]; average of lesions): −91 | Lesion surface area (Adobe Acrobat) Delta Day 28-baseline (acral lick granuloma [2]; average of lesions): 3 | Lesion surface area (Adobe Acrobat) Percent Change Day 14 (acral lick granuloma [2]; average of lesions): −8% | Lesion surface area (Adobe Acrobat) Percent Change Day 28 (acral lick granuloma [2]; average of lesions): 7% | Total Size of Lesion at Day 14 (Adobe Acrobat XI measurement tool) (acral lick granuloma [2]; average of lesions): 462 sq mm | Total Size of Lesion at Day 28 (Adobe Acrobat XI measurement tool) (acral lick granuloma [2]; average of lesions): 557 sq mm | Lesion surface area (Adobe Acrobat) Delta Day 14-baseline (acral lick granuloma [2]; individual lesion): −4 and −924 and 37 and −146 and 25 and 282 and 290 and −230 and 106 and −103 and 81 and −503 | Lesion surface area (Adobe Acrobat) Delta Day 28-baseline (acral lick granuloma [2]; individual lesion): −62 and −924 and 76 and −260 and −136 and 594 and 1062 and −216 and 247 and −48 and 146 and −441 | Lesion surface area (Adobe Acrobat) Percent Change Day 14 (acral lick granuloma [2]; individual lesion): −1% and −100% and 19% and −56% and 18% and 29% and 78% and −73% and 22% and −25% and 39% and −42% | Lesion surface area (Adobe Acrobat) Percent Change Day 28 (acral lick granuloma [2]; individual lesion): −11% and −100% (3×) and 39% and 61% and 287% and −68% and 52% and −12% and 70% and −37% | Total Size of Lesion at Day 14 (Adobe Acrobat XI measurement tool) (acral lick granuloma [2]; individual lesion): 568 sq mm and 0 sq mm and 232 sq mm and 114 sq mm and 161 sq mm and 1252 sq mm and 660 sq mm and 86 sq mm and 579 sq mm and 303 sq mm and 290 sq mm and 704 sq mm | Total Size of Lesion at Day 28 (Adobe Acrobat XI measurement tool) (acral lick granuloma [2]; individual lesion): 509 sq mm and 0 sq mm (3×) and 271 sq mm and 1564 sq mm and 1432 sq mm and 100 sq mm and 720 sq mm and 358 sq mm and 355 sq mm and 766 sq mm | Lesion surface area (ellipse) Delta Day 14-baseline (acral lick granuloma [3]; average of 13 lesions): 49 | Lesion surface area (ellipse) Delta Day 28-baseline (acral lick granuloma [3]; average of 13 lesions): 200 | Lesion surface area (ellipse) Percent Change to Day 14 (acral lick granuloma [3]; average of 13 lesions): 6% | Lesion surface area (ellipse) Percent Change to Day 28 (acral lick granuloma [3]; average of 13 lesions): 15% | Lesion surface area Day 14 (approximation of an ellipse) (acral lick granuloma [3]; average of 13 lesions): 533 sq mm | Lesion surface area Day 28 (approximation of an ellipse) (acral lick granuloma [3]; average of 13 lesions): 684 sq mm | Lesion surface area (ellipse) Delta Day 14-baseline (acral lick granuloma [3]; individual lesion): −55 and 291 and 0 and −63 and 163 and 329 and −188 and −115 and 57 and −48 and 263 and 55 and −51 | Lesion surface area (ellipse) Delta Day 28-baseline (acral lick granuloma [3]; individual lesion): −43 and 134 and −20 and −82 and 734 and 1250 and −75 and 151 and 148 and −7 and 393 and 55 and −39 | Lesion surface area (ellipse) Percent Change to Day 14 (acral lick granuloma [3]; individual lesion): −100% and 285% and 0% and −76% and 16% and 62% and −47% and −19% and 20% and −14% and 15% and 5% and −65% | Lesion surface area (ellipse) Percent Change to Day 28 (acral lick granuloma [3]; individual lesion): −79% and 131% and −100% (2×) and 71% and 235% and −18% and 25% and 54% and −2% and 22% and 5% and −50% | Lesion surface area Day 14 (approximation of an ellipse) (acral lick granuloma [3]; individual lesion): 0 sq mm and 393 sq mm and 20 sq mm (2×) and 1195 sq mm and 862 sq mm and 216 sq mm and 483 sq mm and 334 sq mm and 292 sq mm and 2030 sq mm and 1060 sq mm and 27 sq mm | Lesion surface area Day 28 (approximation of an ellipse) (acral lick granuloma [3]; individual lesion): 12 sq mm and 236 sq mm and 0 sq mm (2×) and 1766 sq mm and 1782 sq mm and 329 sq mm and 749 sq mm and 425 sq mm and 333 sq mm and 2160 sq mm and 1060 sq mm and 39 sq mm | Lesion size Day 14-long axis (acral lick granuloma [3]; [4]): 0 mm and 25 mm and 5 mm (2×) and 65.3 mm and 46.5 mm and 18.2 mm and 39.7 mm and 29.7 mm and 25.3 mm and 55 mm and 45 mm and 7 mm | Lesion size Day 14-short axis (acral lick granuloma [3]; [4]): 0 mm and 20 mm and 5 mm (3×) and 23.3 mm and 23.6 mm and 15.1 mm and 15.5 mm and 14.3 mm and 14.7 mm and 47 mm and 30 mm | Lesion size Day 28-long axis (acral lick granuloma [3]; [4]): 5 mm and 20 mm and 0 mm (2×) and 88.2 mm and 65.2 mm and 23.3 mm and 46.1 mm and 31.1 mm and 20.5 mm and 55 mm and 45 mm and 10 mm | Lesion size Day 28-short axis (acral lick granuloma [3]; [4]): 3 mm and 15 mm and 0 mm (2×) and 25.5 mm and 34.8 mm and 18 mm and 20.7 mm (2×) and 17.4 mm and 50 mm and 30 mm and 5 mm
